IC50 data for 32 molecules are collected here from patent US9376418B2, “Substituted pyridine spleen tyrosine kinase (SYK) inhibitors” (Merck Sharp & Dohme Corp., priority 2012, dated 2016).

A value given as a limit tells only on which side of the number the result lay.

In the first assay the target is T1, recombinant human GST-SYK (Homo sapiens, UniProt P43405).
T1 construct: purchased Carna Biosciences 08-176
The assay is described as follows: Homogeneous Time-Resolved Fluorescence (HTRF) assay for the recombinant human Syk enzyme. The format is biochemical. The note with it: HTRF assay, recombinant human GST-SYK; IC50 given as class symbols; read-out: rhSYK Activity. In a few lines:
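GST-hSYK ([…]) was preincubated with inhibitor (0.1% DMSO final) for 10 minutes at room temperature in 15 mM Tris-HCl pH 7.5, 0.01% tween 20, 2 mM DTT. Biotinylated peptide (250 nM), 5 mM magnesium and 25 μM ATP started a 45-minute room-temperature reaction, read by time-resolved fluorescence.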
(In general: TR-FRET usually uses a lanthanide donor and a delayed reading to cut background.)
For the molecule `Cc1cc(Nc2nccc(C(F)(F)F)n2)cc(-c2ccc(N3CCN(C)CC3)nc2)c1` [Example 7.46, N-{3-methyl-5-[6-(4-methylpiperazin-1-yl)pyridin-3-yl]phenyl}-4-(trifluoromethyl)pyrimidin-2-amine], the IC50 was less than 100 nM. In the case of `Cc1cc(Nc2nccc(C(F)(F)F)n2)cc(-c2ccc(NC3COC3)nc2)c1` [Example 7.47, N-{3-methyl-5-[6-(oxetan-3-ylamino)pyridin-3-yl]phenyl}-4-(trifluoromethyl)pyrimidin-2-amine], the IC50 is less than 100 nM. For the molecule `Cc1cc(Nc2nccc(C(F)(F)F)n2)cc(-c2ccc(N3CCN(S(C)(=O)=O)CC3)nc2)c1` [Example 7.48, N-(3-methyl-5-{6-[4-(methylsulfonyl)piperazin-1-yl]pyridin-3-yl}phenyl)-4-(trifluoromethyl)pyrimidin-2-amine], the IC50 was 100 to 1000 nM.

`CCN1CCN(c2ccc(-c3cc(C)cc(Nc4nccc(C(F)(F)F)n4)c3)cn2)CC1` [Example 7.49, N-{3-[6-(4-ethylpiperazin-1-yl)pyridin-3-yl]-5-methylphenyl}-4-(trifluoromethyl)pyrimidin-2-amine]: the IC50 is 100 to 1000 nM.

Take `CC(=O)NCCN(C)c1ccc(-c2cc(C)cc(Nc3nccc(C(F)(F)F)n3)c2)cn1` [Example 7.50, N-(2-{methyl[5-(3-methyl-5-{[4-(trifluoromethyl)pyrimidin-2-yl]amino}phenyl)pyridin-2-yl]amino}ethyl)acetamide]: the IC50 was less than 100 nM. Consider `Cc1cc(Nc2nccc(C(F)(F)F)n2)cc(-c2ccc(N[C@@H]3CCC(=O)NC3)nc2)c1` [Example 7.51, (5R)-5-{[5-(3-methyl-5-{[4-(trifluoromethyl)pyrimidin-2-yl]amino}phenyl)pyridin-2-yl]amino}piperidin-2-one], for which the IC50 is less than 100 nM. The same measure, in the same setting: to `Cc1cc(Nc2nccc(C(F)(F)F)n2)cc(-c2ccc(N[C@H]3CCC(=O)NC3)nc2)c1` [Example 7.52, (5S)-5-{[5-(3-methyl-5-{[4-(trifluoromethyl)pyrimidin-2-yl]amino}phenyl)pyridin-2-yl]amino}piperidin-2-one] belongs less than 100 nM.

For `Cc1cc(Nc2nccc(C(F)(F)F)n2)cc(-c2ccc(N3CCCC(F)(F)C3)nc2)c1` [Example 7.53, N-{3-[6-(3,3-difluoropiperidin-1-yl)pyridin-3-yl]-5-methylphenyl}-4-(trifluoromethyl)pyrimidin-2-amine], the IC50 is 100 to 1000 nM. Same read-out and setting: to `COCC1CCCN1c1ccc(-c2cc(C)cc(Nc3nccc(C(F)(F)F)n3)c2)cn1` (stereo not drawn) [Example 7.54, N-(3-{6-[2-(methoxymethyl)pyrrolidin-1-yl]pyridin-3-yl}-5-methylphenyl)-4-(trifluoromethyl)pyrimidin-2-amine] belongs 100 to 1000 nM; to `Cc1cc(Nc2nccc(C(F)(F)F)n2)cc(-c2ccc(N3CCN(C)C(=O)C3C)nc2)c1` (stereo not drawn) [Example 7.55, 1,3-dimethyl-4-[5-(3-methyl-5-{[4-(trifluoromethyl)pyrimidin-2-yl]amino}phenyl)pyridin-2-yl]piperazin-2-one], less than 100 nM. In the case of `Cc1cc(Nc2nccc(C(F)(F)F)n2)cc(-c2ccc(N3CCC(F)(F)CC3)nc2)c1` [Example 7.56, N-{3-[6-(4,4-difluoropiperidin-1-yl)pyridin-3-yl]-5-methylphenyl}-4-(trifluoromethyl)pyrimidin-2-amine], the IC50 fell in the range of 100 to 1000 nM. On the same count and under the same terms, to `Cc1cc(Nc2nccc(C(F)(F)F)n2)cc(-c2ccc(N3CCC[C@H]3C(N)=O)nc2)c1` [Example 7.57, 1-[5-(3-methyl-5-{[4-(trifluoromethyl)pyrimidin-2-yl]amino}phenyl)pyridin-2-yl]-L-prolinamide] belongs less than 100 nM.

With `Cc1cc(Nc2nccc(C(F)(F)F)n2)cc(-c2ccc(N3CC(C)NC(C)C3)nc2)c1` (stereo not drawn) [Example 7.58, N-{3-[6-(3,5-dimethylpiperazin-1-yl)pyridin-3-yl]-5-methylphenyl}-4-(trifluoromethyl)pyrimidin-2-amine], the IC50 was less than 100 nM. Still for that read-out and setting: to `CC(=O)N1CCCN(c2ccc(-c3cc(C)cc(Nc4nccc(C(F)(F)F)n4)c3)cn2)CC1` [Example 7.59, N-{3-[6-(4-acetyl-1,4-diazepan-1-yl)pyridin-3-yl]-5-methylphenyl}-4-(trifluoromethyl)pyrimidin-2-amine] belongs less than 100 nM; to `CCCN1CCCN(c2ccc(-c3cc(C)cc(Nc4nccc(C(F)(F)F)n4)c3)cn2)CC1` [Example 7.60, N-{3-methyl-5-[6-(4-propyl-1,4-diazepan-1-yl)pyridin-3-yl]phenyl}-4-(trifluoromethyl)pyrimidin-2-amine], 100 to 1000 nM; to `COCC1CCN(c2ccc(-c3cc(C)cc(Nc4nccc(C(F)(F)F)n4)c3)cn2)C1` (stereo not drawn) [Example 7.61, N-(3-{6-[3-(methoxymethyl)pyrrolidin-1-yl]pyridin-3-yl}-5-methylphenyl)-4-(trifluoromethyl)pyrimidin-2-amine], 100 to 1000 nM.

`CNC(=O)CCNc1ccc(-c2cc(C)cc(Nc3nccc(C(F)(F)F)n3)c2)cn1` [Example 7.62, N-methyl-N~3~-[5-(3-methyl-5-{[4-(trifluoromethyl)pyrimidin-2-yl]amino}phenyl)pyridin-2-yl]-beta-alaninamide]: the IC50 was less than 100 nM. Same read-out and setting: then `CCCOC1CCCN(c2ccc(-c3cc(C)cc(Nc4nccc(C(F)(F)F)n4)c3)cn2)C1` (stereo not drawn) [Example 7.63, N-{3-methyl-5-[6-(3-propoxypiperidin-1-yl)pyridin-3-yl]phenyl}-4-(trifluoromethyl)pyrimidin-2-amine], with 100 to 1000 nM; and `CC(=O)NCCCNc1ccc(-c2cc(C)cc(Nc3nccc(C(F)(F)F)n3)c2)cn1` [Example 7.64, N-(3-{[5-(3-methyl-5-{[4-(trifluoromethyl)pyrimidin-2-yl]amino}phenyl)pyridin-2-yl]amino}propyl)acetamide], with less than 100 nM. `CNC(=O)C1CCCN1c1ccc(-c2cc(C)cc(Nc3nccc(C(F)(F)F)n3)c2)cn1` (stereo not drawn) [Example 7.65, N-methyl-1-[5-(3-methyl-5-{[4-(trifluoromethyl)pyrimidin-2-yl]amino}phenyl)pyridin-2-yl)prolinamide]: the IC50 lay within 100 to 1000 nM. Take `Cc1cc(Nc2nccc(C(F)(F)F)n2)cc(-c2ccc(NCC(=O)N(C)C)nc2)c1` [Example 7.66, N,N-dimethyl-N~2~-[5-(3-methyl-5-{[4-(trifluoromethyl)pyrimidin-2-yl]amino}phenyl)pyridin-2-yl]glycinamide]: the IC50 was less than 100 nM. On the same count and under the same terms, to `Cc1cc(Nc2nccc(C(F)(F)F)n2)cc(-c2ccc(N3CCNC(=O)C3)nc2)c1` [Example 7.67, 4-[5-(3-methyl-5-{[4-(trifluoromethyl)pyrimidin-2-yl]amino}phenyl)pyridin-2-yl]piperazin-2-one] belongs less than 100 nM. Same read-out and setting: then `Cc1cc(Nc2nccc(C(F)(F)F)n2)cc(-c2ccc(NC3CCNC3=O)nc2)c1` (stereo not drawn) [Example 7.68, 3-{[5-(3-methyl-5-{[4-(trifluoromethyl)pyrimidin-2-yl]amino}phenyl)pyridin-2-yl]amino}pyrrolidin-2-one], with less than 100 nM. For `Cc1cc(Nc2nccc(C(F)(F)F)n2)cc(-c2ccc(NC(CO)C(=O)O)nc2)c1` (stereo not drawn) [Example 7.69, N-[5-(3-methyl-5-{[4-(trifluoromethyl)pyrimidin-2-yl]amino}phenyl)pyridin-2-yl]serine], the IC50 was less than 100 nM. Still for that read-out and setting: then `Cc1cc(Nc2nccc(C(F)(F)F)n2)cc(-c2ccc(N[C@H](CC(C)C)C(=O)O)nc2)c1` [Example 7.70, N-[5-(3-methyl-5-{[4-(trifluoromethyl)pyrimidin-2-yl]amino}phenyl)pyridin-2-yl]-D-leucine], with less than 100 nM; and `Cc1cc(Nc2nccc(C(F)(F)F)n2)cc(-c2ccc(N[C@@H](CCO)C(=O)O)nc2)c1` [Example 7.71, N-[5-(3-methyl-5-{[4-(trifluoromethyl)pyrimidin-2-yl]amino}phenyl)pyridin-2-yl]-L-homoserine], with less than 100 nM. Still for that read-out and setting: to `Cc1cc(Nc2nccc(C(F)(F)F)n2)cc(-c2ccc(NC3(C(=O)O)CCNCC3)nc2)c1` [Example 7.72, 4-{[5-(3-methyl-5-{[4-(trifluoromethyl)pyrimidin-2-yl]amino}phenyl)pyridin-2-yl]amino}piperidine-4-carboxylic acid] belongs less than 100 nM. Same read-out and setting: to `Cc1cc(Nc2nccc(C(F)(F)F)n2)cc(-c2ccc(N[C@H](Cc3c[nH]cn3)C(=O)O)nc2)c1` [Example 7.73, N-[5-(3-methyl-5-{[4-(trifluoromethyl)pyrimidin-2-yl]amino}phenyl)pyridin-2-yl]-D-histidine] belongs less than 100 nM; to `Cc1cc(Nc2nccc(C(F)(F)F)n2)cc(-c2ccc(N[C@@H](CCS(C)(=O)=O)C(=O)O)nc2)c1` [Example 7.74, (2S)-4-(methylsulfonyl)-2-{[5-(3-methyl-5-{[4-(trifluoromethyl)pyrimidin-2-yl]amino}phenyl)pyridin-2-yl]amino}butanoic acid], less than 100 nM; to `Cc1cc(Nc2nccc(C(F)(F)F)n2)cc(-c2ccc(N(CCC#N)CC(=O)O)nc2)c1` [Example 7.75, N-(2-cyanoethyl)-N-[5-(3-methyl-5-{[4-(trifluoromethyl)pyrimidin-2-yl]amino}phenyl)pyridin-2-yl]glycine], less than 100 nM.

Take `COCC(Nc1ccc(-c2cc(C)cc(Nc3nccc(C(F)(F)F)n3)c2)cn1)C(=O)O` (stereo not drawn) [Example 7.76, O-methyl-N-[5-(3-methyl-5-{[4-(trifluoromethyl)pyrimidin-2-yl]amino}phenyl)pyridin-2-yl]serine]: the IC50 is less than 100 nM. For the molecule `Cc1cc(Nc2nccc(C(F)(F)F)n2)cc(-c2ccc(NC3(C(=O)O)CCC3)nc2)c1` [Example 7.78, 1-{[5-(3-methyl-5-{[4-(trifluoromethyl)pyrimidin-2-yl]amino}phenyl)pyridin-2-yl]amino}cyclobutanecarboxylic acid], the IC50 is less than 100 nM.

The assay is the same for the next values; noted with them: recombinant GST-hSYK, 25 μM ATP, HTRF; read-out: IC50 (inhibition of human Syk activity).
For `CCCOC1CCCN(c2ccc(-c3cc(C)cc(Nc4nccc(C(F)(F)F)n4)c3)cn2)C1` (stereo not drawn) [Example 7.63, N-{3-methyl-5-[6-(3-propoxypiperidin-1-yl)pyridin-3-yl]phenyl}-4-(trifluoromethyl)pyrimidin-2-amine], the IC50 is 700 nM.
